# Earlier results, collected in US20230023289A1, “ANTHRANILAMIDE COMPOSITION” (priority 2019, published 2023).
# Target: insect ryanodine receptors (Drosophila melanogaster, UniProt Q24498)
# Details: in words
# insect ryanodine receptors, sequence (Q24498 whole entry): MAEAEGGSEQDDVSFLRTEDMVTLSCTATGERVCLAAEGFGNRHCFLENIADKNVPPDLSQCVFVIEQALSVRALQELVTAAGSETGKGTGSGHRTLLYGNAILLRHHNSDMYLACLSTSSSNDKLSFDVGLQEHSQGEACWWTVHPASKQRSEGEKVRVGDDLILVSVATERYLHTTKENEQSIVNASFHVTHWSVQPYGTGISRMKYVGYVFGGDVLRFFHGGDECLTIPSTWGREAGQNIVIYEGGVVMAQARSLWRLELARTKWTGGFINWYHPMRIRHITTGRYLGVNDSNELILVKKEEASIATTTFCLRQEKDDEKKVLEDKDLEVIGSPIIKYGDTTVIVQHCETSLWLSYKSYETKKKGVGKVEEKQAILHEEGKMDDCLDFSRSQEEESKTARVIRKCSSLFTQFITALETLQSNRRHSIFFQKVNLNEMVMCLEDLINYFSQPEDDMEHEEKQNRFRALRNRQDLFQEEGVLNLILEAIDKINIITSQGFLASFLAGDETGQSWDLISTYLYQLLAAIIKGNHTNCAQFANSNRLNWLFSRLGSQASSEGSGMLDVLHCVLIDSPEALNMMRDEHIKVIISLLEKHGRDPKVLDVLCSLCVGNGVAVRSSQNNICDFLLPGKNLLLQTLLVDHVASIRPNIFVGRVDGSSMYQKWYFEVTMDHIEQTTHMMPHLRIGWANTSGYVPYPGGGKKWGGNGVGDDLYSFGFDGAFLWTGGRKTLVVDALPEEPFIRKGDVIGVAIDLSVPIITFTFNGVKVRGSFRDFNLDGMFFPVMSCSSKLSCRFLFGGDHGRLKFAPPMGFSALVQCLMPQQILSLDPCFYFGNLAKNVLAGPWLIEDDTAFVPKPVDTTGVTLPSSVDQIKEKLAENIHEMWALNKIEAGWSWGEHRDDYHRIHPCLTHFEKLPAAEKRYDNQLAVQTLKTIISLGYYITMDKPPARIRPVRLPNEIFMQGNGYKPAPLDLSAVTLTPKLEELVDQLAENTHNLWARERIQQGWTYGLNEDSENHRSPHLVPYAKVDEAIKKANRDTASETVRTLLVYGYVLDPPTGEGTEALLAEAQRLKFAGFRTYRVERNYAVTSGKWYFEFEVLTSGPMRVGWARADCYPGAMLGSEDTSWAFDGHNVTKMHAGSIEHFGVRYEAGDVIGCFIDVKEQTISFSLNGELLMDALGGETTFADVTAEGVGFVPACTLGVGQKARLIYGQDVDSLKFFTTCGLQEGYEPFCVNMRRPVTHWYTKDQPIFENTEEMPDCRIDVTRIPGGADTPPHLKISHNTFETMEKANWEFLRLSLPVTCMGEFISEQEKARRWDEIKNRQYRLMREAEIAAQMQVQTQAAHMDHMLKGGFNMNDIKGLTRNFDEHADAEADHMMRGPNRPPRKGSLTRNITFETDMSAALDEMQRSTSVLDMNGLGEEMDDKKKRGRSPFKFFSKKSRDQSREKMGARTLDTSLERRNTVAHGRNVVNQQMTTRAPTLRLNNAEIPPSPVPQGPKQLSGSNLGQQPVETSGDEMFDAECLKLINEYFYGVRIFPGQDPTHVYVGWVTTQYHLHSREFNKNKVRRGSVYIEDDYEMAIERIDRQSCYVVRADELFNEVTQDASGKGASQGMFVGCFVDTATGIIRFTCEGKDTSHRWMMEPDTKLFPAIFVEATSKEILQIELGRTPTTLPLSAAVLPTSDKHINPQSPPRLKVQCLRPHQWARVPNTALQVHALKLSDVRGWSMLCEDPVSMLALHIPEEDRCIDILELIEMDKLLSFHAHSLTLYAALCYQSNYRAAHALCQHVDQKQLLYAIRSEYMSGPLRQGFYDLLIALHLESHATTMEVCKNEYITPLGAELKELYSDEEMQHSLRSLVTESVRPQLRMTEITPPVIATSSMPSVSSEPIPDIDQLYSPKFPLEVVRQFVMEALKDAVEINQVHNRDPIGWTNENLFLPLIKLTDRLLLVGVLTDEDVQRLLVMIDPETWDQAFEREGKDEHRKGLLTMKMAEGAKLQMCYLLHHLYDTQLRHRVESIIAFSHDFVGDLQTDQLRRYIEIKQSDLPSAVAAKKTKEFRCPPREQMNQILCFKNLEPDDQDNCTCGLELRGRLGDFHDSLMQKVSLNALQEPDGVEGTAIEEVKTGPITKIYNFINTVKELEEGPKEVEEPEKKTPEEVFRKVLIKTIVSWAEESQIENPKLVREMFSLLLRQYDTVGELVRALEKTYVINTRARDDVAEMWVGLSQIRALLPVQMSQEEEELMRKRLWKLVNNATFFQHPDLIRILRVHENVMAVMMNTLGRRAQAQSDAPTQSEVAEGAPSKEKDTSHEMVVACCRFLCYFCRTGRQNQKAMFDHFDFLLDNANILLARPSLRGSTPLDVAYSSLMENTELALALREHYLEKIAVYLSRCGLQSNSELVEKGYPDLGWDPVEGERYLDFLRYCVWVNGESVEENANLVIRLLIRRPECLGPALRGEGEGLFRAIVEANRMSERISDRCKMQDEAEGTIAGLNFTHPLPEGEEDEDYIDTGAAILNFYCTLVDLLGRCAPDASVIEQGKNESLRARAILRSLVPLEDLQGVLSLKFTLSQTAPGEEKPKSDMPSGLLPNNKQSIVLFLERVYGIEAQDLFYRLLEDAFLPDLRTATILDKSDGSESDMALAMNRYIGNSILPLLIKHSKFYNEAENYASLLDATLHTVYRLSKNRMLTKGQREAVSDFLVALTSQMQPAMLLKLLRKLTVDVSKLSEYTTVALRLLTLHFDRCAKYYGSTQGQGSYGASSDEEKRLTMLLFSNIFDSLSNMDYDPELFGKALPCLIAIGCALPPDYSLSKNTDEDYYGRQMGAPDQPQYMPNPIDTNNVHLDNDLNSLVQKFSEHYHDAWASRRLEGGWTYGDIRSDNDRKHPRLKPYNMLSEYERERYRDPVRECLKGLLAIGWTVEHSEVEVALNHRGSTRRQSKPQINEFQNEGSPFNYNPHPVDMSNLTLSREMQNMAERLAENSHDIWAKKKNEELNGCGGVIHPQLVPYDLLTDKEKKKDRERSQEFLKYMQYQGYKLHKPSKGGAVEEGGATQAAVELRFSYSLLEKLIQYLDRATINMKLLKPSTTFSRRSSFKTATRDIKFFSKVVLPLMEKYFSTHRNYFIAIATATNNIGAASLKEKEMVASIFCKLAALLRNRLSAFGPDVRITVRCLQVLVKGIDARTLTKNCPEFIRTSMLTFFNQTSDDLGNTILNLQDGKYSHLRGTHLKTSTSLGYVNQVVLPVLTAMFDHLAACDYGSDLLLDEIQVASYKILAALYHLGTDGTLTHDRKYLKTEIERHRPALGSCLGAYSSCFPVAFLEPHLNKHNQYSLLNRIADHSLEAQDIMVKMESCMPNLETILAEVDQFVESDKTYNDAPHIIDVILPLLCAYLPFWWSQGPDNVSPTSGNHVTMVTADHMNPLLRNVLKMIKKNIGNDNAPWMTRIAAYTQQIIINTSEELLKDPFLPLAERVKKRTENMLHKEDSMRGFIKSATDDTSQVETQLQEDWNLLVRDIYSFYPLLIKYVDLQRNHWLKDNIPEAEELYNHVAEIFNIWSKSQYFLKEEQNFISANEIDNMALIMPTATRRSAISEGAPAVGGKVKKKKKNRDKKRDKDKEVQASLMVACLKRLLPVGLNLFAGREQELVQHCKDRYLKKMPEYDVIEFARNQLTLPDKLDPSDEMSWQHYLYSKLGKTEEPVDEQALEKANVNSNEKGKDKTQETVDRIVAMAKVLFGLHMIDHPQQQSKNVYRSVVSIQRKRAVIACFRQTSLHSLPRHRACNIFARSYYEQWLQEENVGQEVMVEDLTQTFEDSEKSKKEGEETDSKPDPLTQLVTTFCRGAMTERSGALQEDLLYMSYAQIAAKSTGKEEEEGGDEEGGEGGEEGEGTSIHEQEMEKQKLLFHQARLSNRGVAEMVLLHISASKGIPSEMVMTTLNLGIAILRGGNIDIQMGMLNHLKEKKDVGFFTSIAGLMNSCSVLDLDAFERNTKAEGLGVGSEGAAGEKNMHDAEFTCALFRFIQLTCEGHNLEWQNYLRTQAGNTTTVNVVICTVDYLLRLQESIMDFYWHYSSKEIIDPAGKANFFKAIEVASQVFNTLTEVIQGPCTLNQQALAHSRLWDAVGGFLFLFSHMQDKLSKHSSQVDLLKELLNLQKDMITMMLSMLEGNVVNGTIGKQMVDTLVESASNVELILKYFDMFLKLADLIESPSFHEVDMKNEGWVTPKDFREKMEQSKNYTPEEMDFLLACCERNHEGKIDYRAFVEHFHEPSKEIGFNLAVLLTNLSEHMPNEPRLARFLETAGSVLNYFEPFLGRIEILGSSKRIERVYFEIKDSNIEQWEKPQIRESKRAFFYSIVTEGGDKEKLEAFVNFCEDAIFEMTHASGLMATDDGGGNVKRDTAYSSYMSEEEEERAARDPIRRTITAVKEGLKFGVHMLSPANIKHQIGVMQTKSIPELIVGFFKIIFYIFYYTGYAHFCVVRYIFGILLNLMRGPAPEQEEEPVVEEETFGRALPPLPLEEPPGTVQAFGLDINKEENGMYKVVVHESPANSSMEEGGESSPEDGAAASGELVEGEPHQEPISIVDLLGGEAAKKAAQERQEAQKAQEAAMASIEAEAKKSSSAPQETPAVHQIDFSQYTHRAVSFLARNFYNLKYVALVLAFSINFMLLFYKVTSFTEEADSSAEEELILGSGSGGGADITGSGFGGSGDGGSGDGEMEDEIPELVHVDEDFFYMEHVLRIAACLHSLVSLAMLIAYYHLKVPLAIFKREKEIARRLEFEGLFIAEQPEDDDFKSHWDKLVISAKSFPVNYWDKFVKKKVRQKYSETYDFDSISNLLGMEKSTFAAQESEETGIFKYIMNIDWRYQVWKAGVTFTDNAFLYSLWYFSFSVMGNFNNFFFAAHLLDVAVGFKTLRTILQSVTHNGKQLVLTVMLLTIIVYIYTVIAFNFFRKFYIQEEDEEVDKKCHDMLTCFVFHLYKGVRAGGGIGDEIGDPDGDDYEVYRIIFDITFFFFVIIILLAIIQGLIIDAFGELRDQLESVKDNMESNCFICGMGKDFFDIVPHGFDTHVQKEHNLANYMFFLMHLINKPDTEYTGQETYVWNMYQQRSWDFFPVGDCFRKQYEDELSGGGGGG
smiles,measurement,value
"CNC(=O)c1cc(Cl)cc(C)c1NC(=O)c1cc(Br)nn1-c1ncccc1Cl [chlorantraniliprole, 5-bromo-N-[4-chloro-2-methyl-6-(methylcarbamoyl)phenyl]-2-(3-chloropyridin-2-yl)pyrazole-3-carboxamide]",Selectivity for insect ryanodine receptors over mammalian ryanodine receptors,excellent differential selectivity
